Experimental data from US11066386B2, “CGRP receptor antagonists” (Eli Lilly and Company, priority 2017, dated 2021).
Like-named read-outs stand apart in the source and are kept apart here.

Assays:
[1] = In vivo determination of unbound brain-to-plasma partition coefficient (Kp,uu,brain) in rats; settings: 10 mg/kg oral; for concentration at 0.5 h / concentration at 2 h: male, Sprague-Dawley, oral, 10 mg/kg
Experimental: In Vivo Determination of Unbound Brain-to-Plasma Partition Coefficient (Kp,uu,brain) in Rats
Unbound brain-to-plasma partition coefficient (Kp,uu,brain) is one of the key pharmacokinetic parameter for evaluating a compound's ability to cross the blood-brain barrier (BBB) (Hammarlund-Udenaes, M.; Friden, M.; Syvanen, S.; Gupta, A. On the Rate and Extent of Drug Delivery to the Brain. Pharm. Res. 2008, 25 (8), 1737-1750).
Study populations: Animal studies are performed under protocols approved by the Covance Institutional Animal Care and Use Committee. Male Sprague-Dawley rats weighing 250-350 g are obtained from Harlan Sprague Dawley Inc. (Indianapolis, Ind.). Animals have access to food and water ad libitum before and during the study.
Dose administration: Animals each receive 10 mg/kg of the CGRP receptor antagonist compound of Example 1, administered orally in 10 ml/kg of hydroxyethylcellulose 1% w/v/polysorbate 80 0.25% v/v/Antifoam 1510-US 0.05% v/v/in purified water (probe sonicated).
Pharmacokinetic sampling: Three animals per time point are used. The blood (by cardiac puncture) and brain samples are collected at 0.5 and 2 h post dose. The blood samples are treated with K3-EDTA anticoagulant, and plasma is obtained by centrifugation at 1600 g for 10 minutes. The brain samples are weighed and homogenized, without perfusion. All samples are stored at −70° C. until analysis by LC-MS/MS to determine the concentration of the compound of Example 1 in plasma and brain at each time point.
Kp,uu,brain is calculated for each time point from the expression below where individual components are derived from a combination of in vitro and in vivo measurements carried out as described above:
[formula] where Ctotal,brain, Cu,brain, Ctotal,plasma and Cu,plasma are total and unbound brain and plasma concentrations, and fu,brain and fu,plasma are fractions unbound in brain and plasma, respectively.

[2] = target: T1, ABCB1, Human P-Glycoprotein (Pgp) (Homo sapiens, UniProt P08183); experiment: In vitro determination of efflux by Pgp, bi-directional transport across MDCKII cells; assay type: in vitro ADME; settings: MDCKII cells expressing human ABCB1, 5 μM substrate, 60 min
T1 construct: host or cells: MDCKII cells
T1 sequence (P08183 whole entry): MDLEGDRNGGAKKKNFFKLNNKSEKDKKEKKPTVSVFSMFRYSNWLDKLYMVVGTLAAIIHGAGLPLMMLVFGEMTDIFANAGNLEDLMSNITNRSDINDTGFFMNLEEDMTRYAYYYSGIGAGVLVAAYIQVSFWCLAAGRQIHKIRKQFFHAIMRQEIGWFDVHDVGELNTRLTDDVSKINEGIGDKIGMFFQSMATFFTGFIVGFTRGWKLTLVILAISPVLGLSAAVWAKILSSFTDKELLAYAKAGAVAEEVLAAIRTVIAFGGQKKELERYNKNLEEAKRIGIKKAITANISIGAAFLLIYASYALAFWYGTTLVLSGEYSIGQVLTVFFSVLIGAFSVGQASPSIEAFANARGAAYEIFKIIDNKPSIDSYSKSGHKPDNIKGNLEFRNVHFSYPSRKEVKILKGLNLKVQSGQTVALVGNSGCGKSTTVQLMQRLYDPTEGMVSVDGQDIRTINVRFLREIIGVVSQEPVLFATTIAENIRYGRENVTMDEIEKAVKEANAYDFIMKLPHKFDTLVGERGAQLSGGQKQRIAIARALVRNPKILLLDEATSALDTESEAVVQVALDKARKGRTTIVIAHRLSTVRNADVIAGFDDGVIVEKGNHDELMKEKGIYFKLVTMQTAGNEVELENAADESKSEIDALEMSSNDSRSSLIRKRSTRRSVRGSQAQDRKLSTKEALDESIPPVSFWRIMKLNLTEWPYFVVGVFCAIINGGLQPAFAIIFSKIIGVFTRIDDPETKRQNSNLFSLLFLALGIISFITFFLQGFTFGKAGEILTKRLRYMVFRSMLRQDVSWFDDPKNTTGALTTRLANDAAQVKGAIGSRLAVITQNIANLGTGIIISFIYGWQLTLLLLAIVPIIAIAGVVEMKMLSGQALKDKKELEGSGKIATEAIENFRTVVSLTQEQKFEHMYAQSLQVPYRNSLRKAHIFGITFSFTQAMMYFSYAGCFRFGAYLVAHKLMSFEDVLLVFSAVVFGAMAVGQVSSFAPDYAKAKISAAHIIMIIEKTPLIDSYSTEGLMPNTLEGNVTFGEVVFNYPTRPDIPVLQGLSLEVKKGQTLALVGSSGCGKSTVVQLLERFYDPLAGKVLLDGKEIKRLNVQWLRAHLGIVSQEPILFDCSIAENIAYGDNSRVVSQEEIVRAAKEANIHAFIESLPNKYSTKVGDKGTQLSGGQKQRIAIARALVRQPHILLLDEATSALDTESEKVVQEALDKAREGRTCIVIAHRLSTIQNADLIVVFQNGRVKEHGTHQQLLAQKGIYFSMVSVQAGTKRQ
Experimental: In Vitro Determination of Efflux by ABCB1, Human P-Glycoprotein (Pgp)
Cell Culture: MDCKII cells stably expressing human wild-type ABCB1 (Pgp) are obtained from the Netherlands Cancer Institute (Amsterdam, The Netherlands). MDCK cells are maintained as described previously (Desai et al., Mol Pharm 10:1249-1261, 2013).
Bi-directional transport across MDCK cells: The assay is essentially conducted as described previously (Desai et al., Mol Pharm 10:1249-1261, 2013). Transport is measured in both directions across uninhibited and inhibited cell monolayers using a substrate concentration of 5 μM diluted from a 10 mM DMSO stock solution (final DMSO concentration of 0.05%) and a single 60-min time interval. […] The apparent permeability coefficients (Papp) are estimated as the slope of the mass transported per 60 min relative to the total recovered mass. The basal-to-apical (B-A)/apical-to-basal (A-B) Papp ratios are calculated in the absence or presence of inhibitor in each cell line for net efflux ratio (NER).

[3] = Rat plasma and brain homogenate protein binding by equilibrium dialysis; assay type: in vitro ADME
Experimental: Determination of plasma and brain protein binding: Rat plasma and brain homogenate protein in vitro binding is determined using equilibrium dialysis, as described elsewhere [Zamek-Gliszczynski et al., J Pharm Sci, 101:1932-1940, 2012]. The results are reported as fraction unbound in plasma (fu,plasma) and brain (fu,brain), which are then utilized to calculate Kp,uu,brain, as described in Table 2. Rat fu,plasma and fu,brain of the compound of Example 1 are determined to be 0.277 and 0.126, respectively.

[4] = target: T2, hCGRP (human calcitonin gene-related peptide) receptor (Homo sapiens, UniProt O60894+Q16602); experiment: Inhibition of cAMP production by CGRP receptor antagonists (HTRF) in SK-N-MC cells; assay type: cell-based; settings: human CGRP 0.8 nM as agonist, mean ±SEM, n=16, read-out: Kb measured at human CGRP
T2 construct: Cultured SK-N-MC neuroblastoma cells that endogenously express the hCGRP receptor (ATCC); host or cells: SK-N-MC neuroblastoma cells
T2 sequence (Q16602 23-461): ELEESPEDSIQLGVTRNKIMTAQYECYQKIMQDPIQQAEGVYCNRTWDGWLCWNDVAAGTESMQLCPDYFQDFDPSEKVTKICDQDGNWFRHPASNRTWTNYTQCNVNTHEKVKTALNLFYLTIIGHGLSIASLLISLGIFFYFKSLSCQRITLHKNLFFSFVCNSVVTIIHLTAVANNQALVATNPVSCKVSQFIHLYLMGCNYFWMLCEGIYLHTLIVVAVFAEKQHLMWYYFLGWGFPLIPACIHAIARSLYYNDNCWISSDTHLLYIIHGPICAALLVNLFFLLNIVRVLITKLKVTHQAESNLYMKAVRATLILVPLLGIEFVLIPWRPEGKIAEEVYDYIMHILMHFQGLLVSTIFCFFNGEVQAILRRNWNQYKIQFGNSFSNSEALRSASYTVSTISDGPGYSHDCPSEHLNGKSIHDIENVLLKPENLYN
T2 sequence (O60894 27-148): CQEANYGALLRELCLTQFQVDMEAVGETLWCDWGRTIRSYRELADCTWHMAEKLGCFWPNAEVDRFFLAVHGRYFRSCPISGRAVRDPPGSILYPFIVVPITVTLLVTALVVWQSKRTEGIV
Description: Inhibition of cAMP Production by CGRP Receptor Antagonists
The hCGRP (human calcitonin gene-related peptide) receptor is functionally coupled to the Gas proteins. Stimulation of hCGRP results in an increased synthesis of intracellular cAMP and can be blocked by the addition of receptor antagonists. Receptor activity is thus a reflection of the amount of cAMP present within cells which can be detected using standard in vitro technology. […]
Data Analysis: The amount of intracellular cAMP is quantitated using HTRF technology (Cisbio) as per vendor instructions. […] The HTRF signal is immediately detected using an ENVISION® plate reader (Perkin-Elmer) to calculate the ratio of fluorescence at […]. […] Relative EC50 values are calculated from the top-bottom range of the concentration response curve using a four-parameter logistic curve fitting program (ACTIVITYBASE® v5.3.1.22 or GENEDATA SCREENER® v12.0.4), and Kb values are estimated as agonist-corrected IC50 values using the equation: Kb=(IC50)[1+([Agonist]/EC50)]. […]

**Q.** With `Cc1cc(OCCc2ccc([C@@H](C)[C@]3(C)CC(=O)NC3=O)cc2)cc(C)n1` [Example 1, (3S)-3-[(1R)-1-[4-[2-[(2,6-dimethyl-4-pyridyl)oxy]ethyl]phenyl]ethyl]-3-methyl-pyrrolidine-2,5-dione] as the compound, how does the “Unbound brain conc. (Cu,brain)” value ([1]; male Sprague-Dawley rats, 0.5 hr, using rat fu,brain 0.126, mean +/- SD) read?
**A.** The value was 46 ± 9 nM.

**Q.** What about the “Unbound brain conc. (Cu,brain)” value ([1]; male Sprague-Dawley rats, 2.0 hr, using rat fu,brain 0.126, mean +/- SD) of the same compound?
**A.** Its value is 51 ± 10 nM.

**Q.** And the concentration at 0.5 h ([1]; rat, brain, 0.5 hr, mean +/- SD, read-out: Total brain conc. (Ctotal,brain))?
**A.** The concentration at 0.5 h was 365 ± 67 nM.

**Q.** And the concentration at 0.5 h ([1]; rat, brain, 0.5 hr, using rat fu,brain 0.126, mean +/- SD, read-out: Unbound brain conc. (Cu,brain))?
**A.** Its concentration at 0.5 h is 46 ± 9 nM.

**Q.** What about the concentration at 2 h ([1]; rat, brain, 2.0 hr, mean +/- SD, read-out: Total brain conc. (Ctotal,brain)) of the same compound?
**A.** Its concentration at 2 h is 405 ± 83 nM.

**Q.** What about the concentration at 2 h ([1]; rat, brain, 2.0 hr, using rat fu,brain 0.126, mean +/- SD, read-out: Unbound brain conc. (Cu,brain)) of the same compound?
**A.** Its concentration at 2 h is 51 ± 10 nM.

**Q.** What about the concentration at 0.5 h ([1]; rat, plasma, 0.5 hr, mean +/- SD, read-out: Total plasma conc. (Ctotal,plasma)) of the same compound?
**A.** Its concentration at 0.5 h is 497 ± 69 nM.

**Q.** What about the concentration at 0.5 h ([1]; rat, plasma, 0.5 hr, using rat fu,plasma 0.277, mean +/- SD, read-out: Unbound plasma conc. (Cu,plasma)) of the same compound?
**A.** The concentration at 0.5 h was 138 ± 19 nM.

**Q.** And the concentration at 2 h ([1]; rat, plasma, 2.0 hr, mean +/- SD, read-out: Total plasma conc. (Ctotal,plasma))?
**A.** The concentration at 2 h was 531 ± 129 nM.

**Q.** And the concentration at 2 h ([1]; rat, plasma, 2.0 hr, using rat fu,plasma 0.277, mean +/- SD, read-out: Unbound plasma conc. (Cu,plasma))?
**A.** The concentration at 2 h was 147 ± 36 nM.

**Q.** What about the Kp uu at 0.5 h ([1]; rat, brain/plasma, male Sprague-Dawley rats, 0.5 hr, mean +/- SD) of the same compound?
**A.** Its Kp uu at 0.5 h is 0.34 ± 0.05.

**Q.** And the Kp uu at 2 h ([1]; rat, brain/plasma, male Sprague-Dawley rats, 2.0 hr, mean +/- SD)?
**A.** Its Kp uu at 2 h is 0.35 ± 0.01.

**Q.** And the “net efflux ratio (NER) for efflux by Pgp” value [2]?
**A.** Its value is 4.1.

**Q.** And the fraction unbound in brain (fu,brain) ([3]; rat brain homogenate)?
**A.** The fraction unbound in brain (fu,brain) was 0.126.

**Q.** What about the fraction unbound ([3]; rat plasma, read-out: fraction unbound in plasma (fu,plasma)) of the same compound?
**A.** The fraction unbound was 0.277.

**Q.** And the Kb [4]?
**A.** The Kb was 0.31 ± 0.21 nM.
